Source: patent publication US20110045101A1, “FUNGICIDAL SUBSTITUTED AZOLES” (E.I. Du Pont De Nemours and Company, priority 2009, published 2011)
Marks after values point to notes of the source that are not given here.

What was measured:
Type in all cases: in vivo
Conditions in all cases: 100 = 100% disease control
Botrytis cinerea = experiment: Test C: tomato Botrytis on tomato seedlings, sprayed the day before inoculation, visual disease rating
Procedure, shortened: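 Each compound is first taken up in acetone at 3% of the final volume and then brought to the desired ppm in a 50:50 acetone–water mix with 250 ppm surfactant (polyhydric alcohol esters). Tomato seedlings receive the suspension to run-off, normally at 200 ppm, occasionally 40 ppm.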

Alternaria solani = experiment: Test D: tomato early blight, sprayed the day before inoculation, visual disease rating
Procedure, shortened: (§1)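 Test rate was 200 ppm, sprayed to run-off and equal to 500 g/ha, or 40 ppm where marked. The compound was first taken up in acetone at 3% of final volume and suspended in acetone/purified water (50/50) containing 250 ppm Trem® 014.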

Septoria nodorum = experiment: Test F: wheat glume blotch on wheat seedlings, sprayed the day before inoculation, visual disease rating
Procedure, shortened: as §1

Septoria tritici = experiment: Test G: wheat leaf blotch on wheat seedlings, sprayed the day before inoculation, visual disease rating
Procedure, shortened: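 Disease was rated visually after Septoria tritici inoculation, 48 h saturated incubation at 24°C and 19 days in a 20°C growth chamber. Inoculation followed one day after run-off spraying of seedlings with compound at 200 ppm (≈500 g/ha) or, where marked, 40 ppm, formulated in acetone/water with surfactant.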

[1] = test system: Puccinia recondita f. sp. tritici; experiment: Test H: wheat leaf rust, test suspension sprayed after inoculation of wheat seedlings, visual disease rating
Procedure, shortened: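 Wheat seedlings inoculated with P. recondita spores, held 24 h saturated at 20 °C, then 2 days in growth chamber at 20 °C; compound suspension (acetone/water with Trem 014) sprayed to run-off afterwards. Rated visually; 200 ppm (≈500 g/ha) unless marked *, which denotes 40 ppm.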

[2] = test system: Puccinia recondita f. sp. tritici; experiment: Test I: wheat leaf rust on wheat seedlings, sprayed the day before inoculation, visual disease rating
Procedure, shortened: as §1

[3] = test system: Erysiphe graminis f. sp. tritici; experiment: Test J: wheat powdery mildew on wheat seedlings, sprayed the day before inoculation, visual disease rating
Procedure, shortened: as §1

[4] = 200 ppm, 0 = no control relative to controls

| Compound | Test C disease control rating (Botrytis cinerea; [4]) | Test D disease control rating (Alternaria solani; [4]) | Test F disease control rating (Septoria nodorum; [4]) | Test G disease control rating (Septoria tritici; [4]) | Test H disease control rating [1, 4] | Test I disease control rating [2, 4] | Test J disease control rating [3, 4] | other results |
| --- | --- | --- | --- | --- | --- | --- | --- | --- |
| Cc1ccc(-n2c(C)nc(C)c2-c2c(F)ccc(F)c2Cl)cc1 [compound 493] | – | – | – | – | – | – | – | Test C disease control rating (Botrytis cinerea; 40 ppm (marked *)): 96* %; Test D disease control rating (Alternaria solani; 40 ppm (marked *)): 99* %; Test F disease control rating (Septoria nodorum; 40 ppm (marked *)): 0* %; Test G disease control rating (Septoria tritici; 40 ppm (marked *)): 93* %; Test H disease control rating ([1]; 40 ppm (marked *)): 0* %; Test I disease control rating ([2]; 40 ppm (marked *)): 97* %; Test J disease control rating ([3]; 40 ppm (marked *)): 99* % |
| CCOc1ccc(F)c(-c2c(Cl)nc(C)n2-c2ccc(Cl)cc2)c1F [compound 684] | 100% | 100% | 100% | 99% | 53% | 99% | 100% | – |
| COc1cc(F)c(-c2c(Cl)nc(Cl)n2-c2ccc(C)cc2)c(F)c1Cl [compound 405] | 99% | 98% | 0% | 100% | 0% | 98% | 99% | – |
| COc1cc(F)c(-c2c(Cl)nc(Cl)n2-c2ccc(OC(F)(F)F)cc2)c(F)c1 [compound 568] | 99% | 100% | 98% | 94% | 72% | 100% | 100% | – |
| COc1cc(OC)cc(-n2c(C)nc(Br)c2Cc2c(F)cc(F)cc2F)c1 [compound 535] | 0% | 0% | 0% | 2% | 0% | 0% | 0% | – |
| Cc1nc(Cl)n(-c2ccc(Cl)c(F)c2)c1-c1ccc(Br)cn1 [compound 358] | 99% | 0% | 0% | 90% | 0% | 41% | 0% | – |
| Fc1cc(F)c(-c2c(Cl)nc(Cl)n2-c2ccc(OC(F)(F)F)cc2)c(F)c1 [compound 600] | 86% | 100% | 0% | 94% | 7% | 0% | 99% | – |
| CCc1cccc(-n2c(Cl)nc(Cl)c2-c2c(F)ccc(OC)c2F)c1 [compound 427] | 100% | 100% | 99% | 100% | 0% | 93% | 100% | – |
| C=Cc1nc(Cl)c(-c2c(F)ccc(OC)c2F)n1-c1cccc(OC(F)F)c1 [Compound 583, 4-chloro-1-[3-(difluoromethoxy)phenyl]-5-(2,6-difluoro-3-methoxyphenyl)-2-ethenyl-1H-imidazole] | – | – | – | – | – | – | – | pest or weed control at 200 ppm (Botrytis cinerea; Botrytis cinerea, 120 h, 200 ppm, 0 = no control relative to controls): 99%; pest or weed control at 200 ppm (Alternaria solani; Alternaria solani, 168 h, 200 ppm, 0 = no control relative to controls): 97%; pest or weed control at 200 ppm (Septoria nodorum; Parastagonospora nodorum, 264 h, 200 ppm, 0 = no control relative to controls): 0%; pest or weed control at 200 ppm (Septoria tritici; Zymoseptoria tritici, 504 h, 200 ppm, 0 = no control relative to controls): 94%; pest or weed control at 200 ppm ([1]; Puccinia recondita, 96 h, 200 ppm, 0 = no control relative to controls): 0%; pest or weed control at 200 ppm ([2]; Puccinia recondita, 168 h, 200 ppm, 0 = no control relative to controls): 85%; pest or weed control at 200 ppm ([3]; Blumeria graminis, 168 h, 200 ppm, 0 = no control relative to controls): 83% |
| Fc1cc(F)c(-c2c(Cl)ncn2-c2ccc(OC(F)F)cc2)c(F)c1 [compound 585] | 100% | 99% | 0% | 100% | 0% | 100% | 99% | – |
| COC(=O)c1ccc(-n2cnc(Cl)c2-c2c(F)cccc2F)cc1 [compound 614] | – | – | – | – | – | – | – | Test C disease control rating (Botrytis cinerea; 40 ppm (marked *)): 89* %; Test D disease control rating (Alternaria solani; 40 ppm (marked *)): 0* %; Test F disease control rating (Septoria nodorum; 40 ppm (marked *)): 0* %; Test G disease control rating (Septoria tritici; 40 ppm (marked *)): 92* %; Test H disease control rating ([1]; 40 ppm (marked *)): 0* %; Test I disease control rating ([2]; 40 ppm (marked *)): 28* %; Test J disease control rating ([3]; 40 ppm (marked *)): 0* % |
